Where “and” joins values, the source holds several entries; their conditions need not be identical. Equal entries are not always repeated. Where two headings read alike, the source gives them in different places.
Assays:
[1] = system: male Wistar rats after middle cerebral artery occlusion (MCA-O)
From the text: In order to expose the left middle cerebral artery, a cut was made in the temporal muscle. The tip of the coronoid process of mandible was excised as well and removed with a fine rongeur. Craniectomy was made with a dental drill at the junction between the median wall and the roof of the inferotemporal fossa.
The dura matter was opened carefully using a 27 gauge needle. […] Following this, the temporalis muscle was sutured and laid over the craniectomy site. The skin was closed with a running 3-0 silk suture. […] The volume of brain tissue incurring damage following ischemia was determined.

[2] = system: reserpine induced ptosis in rats; assay: Reserpine-induced ptosis in rats; assay type: in vivo; settings: for Mean score of reserpine-induced ptosis: reserpine 5 mg/kg i.p., 0-4 scale, 4 = eyes completely open, saline 0.86
From the text: Reserpine-induced ptosis and its reversal test. Reserpine causes depletion of catecholamine stores, especially norepinephrine. This effect in the live animal is manifested among other things, in ptosis. Drugs that can prevent or inhibit reserpine-induced ptosis act either directly as noradrenergic agonists, or indirectly by decreasing or preventing the metabolic elimination of endogenous norepinephrine. MAO inhibitors belong to the latter category.

anesthetized cat = settings: for Change in MABP / Change in PR: 45-60 min
Protocol: (§1) Cats were anesthetized with i.v. nembutal 25 mg/kg. Anesthesia was maintained by additional injections of nembutal, 5 mg/kg, as needed. The femoral artery was cannulated and connected to a Statham pressure transducer for blood pressure recordings on a Grass multichannel Polygraph. The femoral vein was cannulated for i.v. injection of drugs.

[3] = system: pressor response to catecholamines in the cat; assay: Pressor response to catecholamines in the anesthetized cat before and after S(-)PAI; assay type: in vivo; settings: S(-)PAI 1 mg/kg i.v.
Protocol: as §1

[4] = system: SHR (Spontaneously Hypertensive Rats) rats; settings: for Change in HR / Change in MBAP: 45-60 min
Protocol: A chronic indwelling catheter was implanted in the caudal artery under light anesthesia with averteen. The animals were allowed to recover and were tested 24 hours after implantation. The cathetar was connected to a Statham pressure transducer and blood pressure was recorded on a Grass multichannel Polygraph. During this period, the rat was kept in its home cage in order to minimize handling and undue manipulations known to affect blood pressure.
Two strains of rats were used: WKY rats and matching SHR (Spontaneously Hypertensive Rats) rats. WKY rats were from a local strain, weighing about 250 g each.
SHR rats were purchased from Charles River breeders, England. The animals were allowed to acclimatize and recover from the journey and were used at the age of three months, in order to match their WKY controls. SHR hypertension develops gradually from the age of one month to the age of three months. At this stage, blood pressure is already elevated above normotensive levels.
Blood pressure and heart rate were then monitored for the duration of 45-60 minutes.

SHR rats = settings: for Change in Mean Systolic Blood Pressure / Change in Heart rate: 2 mg/kg p.o. daily
Protocol: (§2) Spontaneously hypertensive rats, three month-old, were used. […] Controls received an equivalent volume of tap water. Treatment lasted 14 days. During this period, systolic blood pressure was monitored on days 0, 4, 7 and 11, using a tail-cuff procedure. On day 14, systolic blood pressure was determined using the indwelling catheter procedure described in Example 7.

[5] = for Weight: 2 mg/kg/day oral
Protocol: as §2
The rats used in Example 8 above, were additionally monitored for weight gain/loss as an additional marker for the rate of food consumption MAO inhibitors usually elevate central catechoiamines which may depress appetite.

[6] = system: injured mice after closed head injury (CHI); settings: 1 mg/kg s.c. 15 min after CHI
Protocol: (§3) The procedure for closed head injury followed was as described for rats in Shohami et al. (J Neurotrauma (1993) 10(2) 109-119) with changes as described.
(§4) Animals: Male Sabra mice (Hebrew University strain) weighing 34-40 g were used. They were housed in groups of 10 per cage, in a 12 hr:12 hr. light:dark cycle. Food and water were provided ad libitium.
(§5) Trauma was induced under anaesthesia. A longitudinal incision was performed in the skin covering the skull and the skin retracted to expose the skull. The head was fixed manually at the lower plane of the impact apparatus. A weight of 333 g was delivered by an electric device from a distance of 3 cm to the left hemisphere, 1-2 mm lateral to the midline in the midcoronal plane.
One point was awarded for the lack of a tested reflex or for the inability to perform the task outline in the Table. The maximal score that can be reached at 1 hour post-CHI is 25 points and at later times, 21 points. The difference in NSS at 1 hr. and at any other time reflects the spontaneous recovery, and is referred to as ΔNSS. A score of 15-19 at 1 hr denotes severe injury, 11-14 denotes moderate injury and less than 10 denotes mild injury.

mice after CHI = settings: in words
Protocol: as §3, §4, §5

MAO mediated effects = settings: Examples 4-9; in words
MAO-A/MAO-B = settings: in vitro; in words; cited from earlier work

For `C#CCN[C@H]1CCc2ccccc21` [S(-)PAI, S-(-)-N-propargyl-1-aminoindan], the “neurological severity score (NSS) and infarct volume versus saline-treated rats” value ([1]; in words) was “significantly lower”, the “Mean NSS ± SEM after 24 hours” value ([1]; ip, 2 mg/kg) was 6.5 ± 0.48 and the “Mean score of reserpine-induced ptosis” value ([2]; 5 mg/kg i.p.) was 1.8. For the same compound, the “Mean score of reserpine-induced ptosis” value ([2]; 10 mg/kg i.p.) was 2.5, the “Mean score of reserpine-induced ptosis” value ([2]; 20 mg/kg i.p.) was 1.5 and the “endogenous norepinephrine concentrations (inferred from ptosis scores)” value ([2]; in words) was “does not cause an increase in endogenous norepinephrine concentrations”. For the same compound, the “Change in MABP” value (anesthetized cat; dose 0.03, i.v.) was 7 mmHg and 5 mmHg, the “Change in MABP” value (anesthetized cat; dose 0.1, i.v.) was -12 mmHg and the “Change in PR” value (anesthetized cat; dose 0.1, i.v.) was 0 beats/min. The “Change in MABP” value (anesthetized cat; dose 1.0, i.v.) was 2 mmHg, the “Change in PR” value (anesthetized cat; dose 1.0, i.v.) was -5 beats/min and the “mean arterial blood pressure (MABP) and heart rate (HR)” value (anesthetized cat; i.v., up to cumulative dose of 1 mg/kg, 45-60 minutes, in words) was “neither mean arterial blood pressure (MABP) nor heart rate (HR) were affected”. The “Δ mean arterial pressure after S(-)PAI” value ([3]; challenge norepinephrine 0.02 μg/kg) was 12 mmHg, the “Δ mean arterial pressure after S(-)PAI” value ([3]; challenge norepinephrine 0.05 μg/kg) was 32 mmHg and the “Δ mean arterial pressure after S(-)PAI” value ([3]; challenge norepinephrine 0.10 μg/kg) was 23 mmHg. The “Δ mean arterial pressure after S(-)PAI” value ([3]; challenge norepinephrine 0.20 μg/kg) was 46 mmHg, the “Δ mean arterial pressure after S(-)PAI” value ([3]; challenge phenylephrine 0.20 μg/kg) was 2 mmHg and the “Δ mean arterial pressure after S(-)PAI” value ([3]; challenge phenylephrine 0.50 μg/kg) was 17 mmHg. For the same compound, the “Δ mean arterial pressure after S(-)PAI” value ([3]; challenge phenylephrine 1.0 μg/kg) was 17 mmHg, the “Δ mean arterial pressure after S(-)PAI” value ([3]; challenge phenylephrine 2.0 μg/kg) was 42 mmHg and the “Δ mean arterial pressure after S(-)PAI” value ([3]; challenge tyramine 2.0 μg/kg) was 3 mmHg. For the same compound, the “Δ mean arterial pressure after S(-)PAI” value ([3]; challenge tyramine 5.0 μg/kg) was 9 mmHg, the “Δ mean arterial pressure after S(-)PAI” value ([3]; challenge tyramine 10.0 μg/kg) was 28 mmHg and the “Δ mean arterial pressure after S(-)PAI” value ([3]; challenge tyramine 20.0 μg/kg) was 39 mmHg. The “potentiation of the pressor response” value ([3]; phenylephrine, tyramine, norepinephrine, in words) was “no significant potentiation of the pressor response”, the “blood pressure and heart rate” value ([4]; acute oral, in words) was “no effect on either parameter in either strain of rats” and the “Change in HR” value ([4]; dose 1, oral) was -30 beats/min. For the same compound, the “Change in MBAP” value ([4]; dose 1, oral) was -16 mmHg, the “Change in HR” value ([4]; dose 2, oral) was 0 beats/min and the “Change in MBAP” value ([4]; dose 2, oral) was -12 mmHg. The “Change in HR” value ([4]; dose 10, oral) was 0 beats/min, the “Change in MBAP” value ([4]; dose 10, oral) was 4 mmHg and the “Change in Mean Systolic Blood Pressure” value (SHR rats; day 0, tap water 169.55 ± 7.73) was 166.88 ± 6.11 mmHg. The “Change in Heart rate” value (SHR rats; day 0, tap water 374.09 ± 7.17) was 404.13 ± 32.86 beats/min, the “Change in Mean Systolic Blood Pressure” value (SHR rats; day 4, tap water 177.82 ± 9.08) was 168.5 ± 12.8 mmHg and the “Change in Heart rate” value (SHR rats; day 4, tap water 403 ± 23.3) was 394.5 ± 37.43 beats/min. For the same compound, the “Change in Mean Systolic Blood Pressure” value (SHR rats; day 7, tap water 177.67 ± 10.21) was 172.13 ± 14.62 mmHg, the “Change in Heart rate” value (SHR rats; day 7, tap water 392.67 ± 24.66) was 394.38 ± 24.47 beats/min and the “Change in Mean Systolic Blood Pressure” value (SHR rats; day 11, tap water 178 ± 8.65) was 167.43 ± 14.23 mmHg. The “Change in Heart rate” value (SHR rats; day 11, tap water 371.25 ± 27.22) was 408 ± 40.04 beats/min, the “intraindividual and interindividual profile of systolic blood pressure and heart rate” value (SHR rats; chronic oral 2 mg/kg/day, in words) was “no effect” and the Weight ([5]; day 0, tap water 317 ± 32.64) was 294.13 ± 32.06 g. The Weight ([5]; day 7, tap water 302.22 ± 35.17) was 292.25 ± 28.47 g, the Weight ([5]; day 14, tap water 312.89) was 307.33 ± 24.13 g and the body weight ([5]; 2 mg/kg/day, 14 days, in words) was “no effect on body weight”. The “Δ NSS, 24 hr post-CHI” value ([6]; saline 4.75 ± 0.17) was 5.06 ± 0.25, the “Δ NSS, 7 days post-CHI” value ([6]; saline 5.83 ± 0.36) was 7.19 ± 0.28 and the “Δ NSS, 14 days post-CHI” value ([6]; saline 5.96 ± 0.4) was 7.88 ± 0.36. The “latency to find the platform, compared to saline treated controls” value (mice after CHI; FIG. 1, after CHI) was “reduction in latency”, the “memory, compared to saline-treated mice” value (mice after CHI; after CHI) was “Memory is enhanced” and the “effect on several MAO mediated effects” value (MAO mediated effects) was “minimal or no effect”. The “preference for MAO-B or MAO-A” value (MAO-A/MAO-B) was “no preference to either substrate”.

Source: patent US6277886A (priority 1996, dated 2001)
